Reference: patent US20170136102A1, “PHAGE-DERIVED COMPOSITIONS FOR IMPROVED MYC[…]” (priority 2014, published 2017)
Values after ≈ are worked out from the molar mass of the structure shown. Where two headings read alike, the source gives them in different places.

Legend:
Type in all cases: cell-based
M. smegmatis [1] = assay: Broth checkerboard MIC, synergy of LysB with anti-TB drugs; details: for MIC: Mycolicibacterium smegmatis
M. bovis BCG = assay: microbe, parasite or virus in culture; details: for FIC index: M. bovis BCG (Dubos), drug in combination with LysB, <0.5 indicates synergy; for MIC: Mycobacterium tuberculosis variant bovis BCG, BCG
M. smegmatis [2] = tested on: M. smegmatis

| Compound | FIC index (M. smegmatis [1]) | MIC (M. smegmatis [1]) | FIC index (M. bovis BCG) | MIC (M. bovis BCG) | Log10 CFU reduction (M. smegmatis [2]) | Log10 CFU reduction (M. smegmatis [2]; M. smegmatis, 24 hrs, Ethambutol group) | Log10 CFU reduction (M. smegmatis [2]; M. smegmatis, 24 hrs, INH group) |
| --- | --- | --- | --- | --- | --- | --- | --- |
| CO[C@H]1/C=C/O[C@@]2(C)Oc3c(C)c(O)c4c(O)c(c(/C=N/N5CCN(C)CC5)c(O)c4c3C2=O)NC(=O)/C(C)=C\C=C\[C@H](C)[C@H](O)[C@@H](C)[C@@H](O)[C@@H](C)[C@H](OC(C)=O)[C@@H]1C [Rifampicin] | 0.06 | 4 µg/mL | 0.37 | 0.004 µg/mL (≈ 0.00486 µM) | <1 Log10 CFU |  |  |
| CC[C@@H](CO)NCCN[C@@H](CC)CO [Ethambutol] | 0.06 | 2 µg/mL | 0.15 | 16 µg/mL (≈ 78.3 µM) |  | <1 Log10 CFU |  |
| NNC(=O)c1ccncc1 [INH, Isoniazid] | 0.13 | 8 µg/mL | 0.47 | 0.03 µg/mL (≈ 0.219 µM) |  |  | <1 Log10 CFU |
